We go through one compound from patent US10364247B2, “Preparation and use of novel protein kinase inhibitors” (Ruijin Hospital Affiliated to Shanghai Jiao Tong University …, priority 2015, dated 2019).

One may read the IC50 as the concentration that inhibits the measured activity by half.

One assay relates to BaF3-NRASD12. The assay is described as follows: Oncogenic RAS dependent cell proliferation (CellTiter Glo). The class given is cell-based, murine. To be noted: Mus musculus, BaF3-NRASD12 cells, 48 hours, read-out: NRas-BaF3 IC50. An outline of the steps:
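BaF/3 cells transformed with NRASD12 or KRASD12, plus parental BaF/3, seeded at 5000 cells/well. Viability read by CellTiter-Glo luminescence, reagent diluted 1:4 in PBS, with vehicle and cell-free background controls.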
(In general: ATP-based viability assays read luminescence as a measure of living cells.)

A further assay concerns the target FLT3 (Homo sapiens, UniProt P36888). Briefly: KINOMEscan competition binding. As for the experimental part: KINOMEscan™ is based on a competition binding assay that quantitatively measures the ability of a compound to compete with an immobilized, active-site directed ligand (Fabian et al. (2005) Nat. Biotechnol. 23, 329; Karaman et al. (2008) Nat. Biotechnol. 26, 127). The compound was screened at 10 μM, and results for primary screen binding interactions are reported as ‘% Ctrl’, where lower numbers indicate stronger hits. The results for kinases targets with a % Ctrl less than 30 can be seen in Table 2.
FLT3 is a receptor tyrosine kinase; its activating mutations are found in 30% human acute myeloid leukemia (AML)^5.

The target of the next assay is T1, BaF3-TEL-LYN (Homo sapiens, UniProt P07948).
T1 construct: fused on or other part: P41212 (Transcription factor ETV6)
The assay is described as follows: Antiproliferative activity, kinase-dependent Ba/F3 cells (MTT/MTS). The class given is cell-based, murine. To be noted: 48 hours, cell viability, read-out: tel-LYN IC50. The method, boiled down: (§1)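 Murine Ba/F3 cells transformed with the indicated TEL- or EML4-fusion kinases, seeded at 20,000 cells/well in RPMI/10% FCS. Viability by MTT/MTS; IC50 as concentration reducing viability to 50% of DMSO vehicle control.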

The next assay addresses T2, BaF3-TEL-HCK (Homo sapiens, UniProt P08631).
T2 construct: fused on or other part: P41212 (Transcription factor ETV6)
The assay is described as above. The class given is cell-based, murine. To be noted: 48 hours, cell viability, read-out: Tel-HCK IC50. An outline of the steps: as §1

The test system of assay [1] is Ba/F3 cells expressing FLT3-ITD oncoprotein (ITD). The assay is described as follows: Proliferation of FLT3-ITD expressing Ba/F3 cells. The class given is cell-based, murine. As for the experimental part: (§2) A. Dose response curve of IA-9 in treating ITD cells is presented. ITD cells in the presence (ITD+) or absence of IL-3 (ITD−) were treated with 10 μM and 3-fold dilution series of IA-9. B. Dose response curve of IA-9 in treating MV-4-11 cells is shown. […].

The next assay deals with MV-4-11. The assay is described as follows: Proliferation of FLT3-ITD-driven human AML cells. Conditions: compared with Dasatinib; FIG. 5B. The class given is cell-based. As for the experimental part: as §2
In assay [2] the test system is NCI-H1975 and HCC827 cell lines. Briefly: Lung adenocarcinoma cell proliferation. The class given is cell-based. Conditions: FIG. 4. As for the experimental part: The ability of IA-9 to treat lung adenocarcinoma was tested using the NCI-H1975 and HCC827 cell lines. Both cell lines harbor at least EGFR and Ras mutations and are multi-drug resistant. Cell proliferation was tested using methods described herein.

Assay [3] concerns SK-MEL-5, SK-MEL-28, and SK-MEL-30 cell lines. Briefly: Melanoma cell proliferation. To be noted: SK-MEL-5, SK-MEL-28 (B-Raf V600E), SK-MEL-30 (N-Ras Q61K); FIG. 3. The class given is cell-based. As for the experimental part: The ability of IA-9 to treat melanoma was tested using the SK-MEL-5, SK-MEL-28, and SK-MEL-30 cell lines. SK-MEL-5 and SK-MEL-28 express mutant B-Raf (V600E) and wildtype N-Ras. SK-MEL-30 expresses wildtype B-Raf and mutant N-Ras (Q61K). Cell proliferation was tested using methods described herein.

The target of a further assay is T3, p38-alpha (Homo sapiens, UniProt Q16539).
T3 construct: purchased KINOMEscan (panel service)
T3 sequence (Q16539 whole entry): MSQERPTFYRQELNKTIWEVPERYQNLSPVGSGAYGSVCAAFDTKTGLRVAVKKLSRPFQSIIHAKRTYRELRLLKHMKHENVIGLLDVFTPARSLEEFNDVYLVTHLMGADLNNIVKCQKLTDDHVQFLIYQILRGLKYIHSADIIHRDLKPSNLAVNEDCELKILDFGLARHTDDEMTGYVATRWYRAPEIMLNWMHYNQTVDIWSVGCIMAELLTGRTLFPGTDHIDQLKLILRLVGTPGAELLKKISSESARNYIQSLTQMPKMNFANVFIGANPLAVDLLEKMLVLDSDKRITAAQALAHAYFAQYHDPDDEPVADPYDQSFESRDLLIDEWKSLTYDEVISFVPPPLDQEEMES
The assay is described as follows: KINOMEscan competition binding. Conditions: p38-alpha (Entrez MAPK14), read-out: Percent Control. The method, boiled down: (§3)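 Primary screen at 10 μM; quantitative competition with immobilized active-site ligand; % Ctrl reported, stronger hits giving lower numbers.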

Assay [4] addresses ABL1(F317L)-nonphosphorylated (Homo sapiens, UniProt P00519, F317L). The assay is described as follows: KINOMEscan competition binding. Conditions: read-out: Percent Control. An outline of the steps:
as §3

Another assay concerns the target T4, SIK2 (Homo sapiens, UniProt Q9H0K1).
T4 construct: purchased KINOMEscan (screening service)
Briefly: KINOMEscan competition binding. Conditions: read-out: Percent Control. An outline of the steps: as §3

The target in the next assay is FLT3(K663Q) (Homo sapiens, UniProt P36888, K663Q). Briefly: KINOMEscan competition binding. Conditions: read-out: Percent Control. The method, boiled down: as §3
Another assay addresses T5, TNNI3K (Homo sapiens, UniProt Q59H18).
T5 construct: purchased KINOMEscan (panel service)
Briefly: KINOMEscan competition binding. Conditions: read-out: Percent Control. An outline of the steps:
as §3

The target of the next assay is EGFR(L861Q) (Homo sapiens, UniProt P00533, L861Q). The assay is described as follows: KINOMEscan competition binding. To be noted: read-out: Percent Control. An outline of the steps:
as §3

T2 sequence (P08631 whole entry, change not shown, the tested form may be a part): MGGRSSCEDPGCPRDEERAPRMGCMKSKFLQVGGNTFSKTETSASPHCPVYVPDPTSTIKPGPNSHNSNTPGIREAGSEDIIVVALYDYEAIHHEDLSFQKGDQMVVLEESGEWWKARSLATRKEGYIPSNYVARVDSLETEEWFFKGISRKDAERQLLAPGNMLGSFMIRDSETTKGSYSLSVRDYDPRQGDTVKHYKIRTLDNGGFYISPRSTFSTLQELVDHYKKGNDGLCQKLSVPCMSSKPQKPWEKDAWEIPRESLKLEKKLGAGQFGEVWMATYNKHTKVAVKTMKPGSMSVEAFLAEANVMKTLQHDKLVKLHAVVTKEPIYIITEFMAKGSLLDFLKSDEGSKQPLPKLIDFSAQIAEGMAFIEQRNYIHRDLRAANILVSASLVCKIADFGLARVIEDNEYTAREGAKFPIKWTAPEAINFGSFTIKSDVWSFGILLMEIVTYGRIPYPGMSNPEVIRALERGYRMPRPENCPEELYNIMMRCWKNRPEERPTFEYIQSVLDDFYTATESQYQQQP
T4 sequence (Q9H0K1 whole entry): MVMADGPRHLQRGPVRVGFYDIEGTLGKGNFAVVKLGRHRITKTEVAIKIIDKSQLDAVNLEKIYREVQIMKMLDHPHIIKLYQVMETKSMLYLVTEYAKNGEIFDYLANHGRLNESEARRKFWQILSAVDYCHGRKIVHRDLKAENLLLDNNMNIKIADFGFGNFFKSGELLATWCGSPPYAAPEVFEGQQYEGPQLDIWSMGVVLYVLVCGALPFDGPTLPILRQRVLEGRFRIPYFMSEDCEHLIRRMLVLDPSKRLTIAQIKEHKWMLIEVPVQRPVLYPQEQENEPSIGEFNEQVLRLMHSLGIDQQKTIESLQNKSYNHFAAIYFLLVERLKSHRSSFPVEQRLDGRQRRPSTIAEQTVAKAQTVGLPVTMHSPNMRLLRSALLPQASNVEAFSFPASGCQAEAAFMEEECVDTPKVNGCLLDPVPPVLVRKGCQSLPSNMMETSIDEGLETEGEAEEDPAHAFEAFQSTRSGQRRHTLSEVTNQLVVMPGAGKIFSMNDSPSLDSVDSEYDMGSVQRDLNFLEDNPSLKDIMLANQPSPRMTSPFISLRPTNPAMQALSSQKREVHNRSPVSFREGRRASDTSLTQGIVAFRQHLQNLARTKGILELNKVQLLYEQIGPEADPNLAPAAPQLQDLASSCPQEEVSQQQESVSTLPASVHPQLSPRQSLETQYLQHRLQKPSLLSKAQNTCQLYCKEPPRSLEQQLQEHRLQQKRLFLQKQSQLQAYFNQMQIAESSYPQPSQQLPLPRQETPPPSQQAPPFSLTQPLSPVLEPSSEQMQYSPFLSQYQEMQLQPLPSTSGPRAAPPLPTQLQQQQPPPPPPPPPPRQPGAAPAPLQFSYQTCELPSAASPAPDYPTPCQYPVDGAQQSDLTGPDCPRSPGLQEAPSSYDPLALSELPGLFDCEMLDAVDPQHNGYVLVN
Sequence of EGFR(L861Q) (P00533 25-1210 L861Q): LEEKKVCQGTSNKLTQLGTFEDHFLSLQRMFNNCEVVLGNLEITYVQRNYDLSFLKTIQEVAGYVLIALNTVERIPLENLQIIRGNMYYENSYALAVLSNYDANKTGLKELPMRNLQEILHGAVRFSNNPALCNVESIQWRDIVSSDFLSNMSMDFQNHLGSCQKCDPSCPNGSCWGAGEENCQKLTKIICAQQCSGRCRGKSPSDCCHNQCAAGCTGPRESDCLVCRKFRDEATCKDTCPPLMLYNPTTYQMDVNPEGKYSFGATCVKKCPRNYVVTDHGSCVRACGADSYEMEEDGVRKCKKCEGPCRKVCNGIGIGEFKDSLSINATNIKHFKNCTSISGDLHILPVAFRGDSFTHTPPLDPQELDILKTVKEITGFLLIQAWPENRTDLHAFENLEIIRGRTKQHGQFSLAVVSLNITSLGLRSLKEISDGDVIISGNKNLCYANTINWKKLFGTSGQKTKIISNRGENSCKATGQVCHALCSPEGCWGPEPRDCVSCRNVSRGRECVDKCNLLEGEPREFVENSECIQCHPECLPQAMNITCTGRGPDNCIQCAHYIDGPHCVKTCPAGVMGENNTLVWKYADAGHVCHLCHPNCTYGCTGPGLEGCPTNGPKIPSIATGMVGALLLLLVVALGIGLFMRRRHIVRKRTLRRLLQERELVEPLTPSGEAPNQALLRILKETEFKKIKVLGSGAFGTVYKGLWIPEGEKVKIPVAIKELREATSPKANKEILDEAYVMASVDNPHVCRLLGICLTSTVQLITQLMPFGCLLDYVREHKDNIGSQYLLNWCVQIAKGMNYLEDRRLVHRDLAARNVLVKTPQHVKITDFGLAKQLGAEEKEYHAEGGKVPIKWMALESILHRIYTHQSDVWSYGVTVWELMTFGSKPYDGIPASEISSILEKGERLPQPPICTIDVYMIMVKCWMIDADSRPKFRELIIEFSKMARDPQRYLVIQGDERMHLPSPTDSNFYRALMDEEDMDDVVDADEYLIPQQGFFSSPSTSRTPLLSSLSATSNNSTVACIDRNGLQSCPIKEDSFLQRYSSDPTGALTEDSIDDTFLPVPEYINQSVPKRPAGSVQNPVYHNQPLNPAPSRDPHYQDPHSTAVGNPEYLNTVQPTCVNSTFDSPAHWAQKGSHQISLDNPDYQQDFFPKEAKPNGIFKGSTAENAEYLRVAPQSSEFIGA
Sequence of ABL1(F317L)-nonphosphorylated (P00519 whole entry F317L): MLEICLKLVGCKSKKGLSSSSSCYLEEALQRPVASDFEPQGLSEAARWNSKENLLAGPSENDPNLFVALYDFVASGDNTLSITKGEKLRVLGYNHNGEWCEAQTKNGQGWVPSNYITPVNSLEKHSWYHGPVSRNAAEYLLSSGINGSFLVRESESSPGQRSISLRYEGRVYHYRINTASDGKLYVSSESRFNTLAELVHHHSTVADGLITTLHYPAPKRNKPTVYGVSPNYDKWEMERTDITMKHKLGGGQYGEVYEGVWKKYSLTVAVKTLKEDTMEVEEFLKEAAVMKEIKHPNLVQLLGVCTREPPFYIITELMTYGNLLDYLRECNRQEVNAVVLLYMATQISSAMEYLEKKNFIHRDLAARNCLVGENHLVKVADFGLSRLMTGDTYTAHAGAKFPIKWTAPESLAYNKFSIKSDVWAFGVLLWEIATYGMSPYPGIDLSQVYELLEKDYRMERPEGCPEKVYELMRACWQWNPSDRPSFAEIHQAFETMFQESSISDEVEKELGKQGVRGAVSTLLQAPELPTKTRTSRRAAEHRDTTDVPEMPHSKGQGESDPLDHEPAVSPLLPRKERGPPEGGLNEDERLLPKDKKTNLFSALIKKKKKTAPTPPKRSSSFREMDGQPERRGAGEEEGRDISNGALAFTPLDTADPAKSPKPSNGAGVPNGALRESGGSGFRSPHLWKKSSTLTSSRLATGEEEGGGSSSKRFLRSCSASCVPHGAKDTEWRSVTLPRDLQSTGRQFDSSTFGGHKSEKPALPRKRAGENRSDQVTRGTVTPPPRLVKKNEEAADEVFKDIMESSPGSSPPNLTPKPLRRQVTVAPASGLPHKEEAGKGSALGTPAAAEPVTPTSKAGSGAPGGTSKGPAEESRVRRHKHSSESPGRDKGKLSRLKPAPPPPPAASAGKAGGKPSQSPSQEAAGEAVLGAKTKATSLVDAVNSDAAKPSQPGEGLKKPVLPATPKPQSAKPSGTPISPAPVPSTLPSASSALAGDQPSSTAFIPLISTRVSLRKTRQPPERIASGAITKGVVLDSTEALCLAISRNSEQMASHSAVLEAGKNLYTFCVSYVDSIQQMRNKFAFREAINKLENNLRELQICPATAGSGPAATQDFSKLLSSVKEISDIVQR
T5 sequence (Q59H18 whole entry): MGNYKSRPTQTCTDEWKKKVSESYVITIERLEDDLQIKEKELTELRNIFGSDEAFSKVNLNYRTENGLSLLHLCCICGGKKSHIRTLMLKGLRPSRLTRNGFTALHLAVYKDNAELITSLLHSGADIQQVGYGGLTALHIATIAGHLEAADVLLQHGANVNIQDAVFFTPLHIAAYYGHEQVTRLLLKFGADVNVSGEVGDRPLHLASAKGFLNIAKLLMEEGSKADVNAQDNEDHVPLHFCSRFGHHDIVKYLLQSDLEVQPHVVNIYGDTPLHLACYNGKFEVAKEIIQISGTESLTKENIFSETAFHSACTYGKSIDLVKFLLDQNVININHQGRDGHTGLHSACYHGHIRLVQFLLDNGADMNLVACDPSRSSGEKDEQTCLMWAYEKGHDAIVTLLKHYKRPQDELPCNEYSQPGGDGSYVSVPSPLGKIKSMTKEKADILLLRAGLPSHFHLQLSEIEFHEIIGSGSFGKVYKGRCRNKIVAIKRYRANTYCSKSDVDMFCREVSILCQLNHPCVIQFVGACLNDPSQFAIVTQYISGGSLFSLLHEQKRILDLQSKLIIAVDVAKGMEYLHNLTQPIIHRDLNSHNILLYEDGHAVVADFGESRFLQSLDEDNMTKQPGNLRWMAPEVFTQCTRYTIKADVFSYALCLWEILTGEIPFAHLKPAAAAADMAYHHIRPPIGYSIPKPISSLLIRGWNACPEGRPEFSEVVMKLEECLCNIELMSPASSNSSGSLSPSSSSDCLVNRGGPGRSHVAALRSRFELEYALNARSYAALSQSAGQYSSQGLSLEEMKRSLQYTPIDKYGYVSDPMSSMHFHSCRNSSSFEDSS

As to `Cc1ccc(Nc2ncc3c(n2)N(C)CN(c2cc(NC(=O)c4cccc(C(F)(F)F)c4)ccc2C)C3)cn1` [IA-9, N-(4-methyl-3-(1-methyl-7-((6-methylpyridin-3-yl)amino)-1,4-dihydropyrimido[4,5-d]pyrimidin-3(2H)-yl)phenyl)-3-(trifluoromethyl)benzamide], the IC50 with BaF3-NRASD12 stood at 380 nM. The remaining binding at 10 µM at FLT3 (FLT3, 10 μM, read-out: Percent Control) came to 0.2%; on p38-alpha, 0.1%; in [4], 0%; on SIK2 it was 21%; on FLT3(K663Q), 0.55%; at TNNI3K, 0.1%. Besides, the remaining binding at 10 µM at EGFR(L861Q) came to 0%. The “binding to FLT3 kinase (in words)” value at FLT3 (KINOMEscan data) is reported as “bind(s) FLT3 kinase strongly”. Further, the GI50 on BaF3-TEL-LYN was 225 nM; on BaF3-TEL-HCK, 639 nM. Also, in assay [1] (FLT3-ITD transformed cells, IL-3 rescue), the “potential therapeutic window (ITD cells with vs without IL-3)” value stood at 80 fold. Further, in assay [1] (absence of IL-3, FIG. 5A), the “inhibition of proliferation/viability of ITD cells” value is “effectively inhibits the proliferation/viability of ITD cells”. For the same compound, in assay [1] (presence of IL-3, FIG. 5A), the “proliferation/survival of ITD cells on addition of IL-3” value is “largely rescues the proliferation/survival of the ITD cells”. For the same compound, the “suppression of growth of MV-4-11” value in the assay on MV-4-11 was “much more effectively than did Dasatinib”. Also, the “reduction of proliferation of lung adenocarcinoma cells” value in assay [2] is reported as “reduce the proliferation of lung adenocarcinoma cells”. Moreover, the “reduction of proliferation of melanoma cells” value in assay [3] is listed as “reduce the proliferation of melanoma cells”.
